Reference: patent US11986452B2, “Methods of reducing the risk of heart failure” (Amarin Pharmaceuticals Ireland Limited, priority 2021, dated 2024)

What was measured:
[1] = tested on: statin-treated patients with elevated triglycerides; test: Example 3: total (first and subsequent) ischemic events analysis (negative binomial, modified Wei-Lin-Weissfeld, Andersen-Gill, joint frailty); assay type: in vivo, human; conditions: for Adjusted HR, total events / Unadjusted HR, total events / Adjusted HR, first event / Adjusted HR, second event / Adjusted HR, third event / Unadjusted HR, first event / Unadjusted HR, second event / Unadjusted HR, third event / Adjusted RR, total events / Unadjusted RR, total events / HR, Cardiovascular Death / HR, Non-fatal Cardiovascular Event: vs placebo; for Adjusted HR, first event / Adjusted HR, second event / Adjusted HR, third event / Unadjusted HR, first event / Unadjusted HR, second event / Unadjusted HR, third event: modified WLW; for HR, Cardiovascular Death / HR, Non-fatal Cardiovascular Event: joint frailty model; for Fatal events, %: after reduction
Source text: The following study was a multi-center, placebo-controlled clinical trial the details of which are described above in Example 1, the REDUCE-IT design. […] The main outcomes were total primary composite endpoint events defined as cardiovascular death, nonfatal myocardial infarction, nonfatal stroke, coronary revascularization, or hospitalization for unstable angina and total key secondary composite endpoint events defined as cardiovascular death, nonfatal myocardial infarction, or nonfatal stroke. In the context of this study, total events refer to any first event as well as any subsequent event. Differences in total events were determined using other statistical models, including Andersen-Gill, Wei-Lin-Weissfeld (Li and Lagakos), both pre-specified, and a post hoc and joint-frailty analysis.
For the present prespecified analysis, the primary outcome was the total of first plus subsequent ischemic events consisting of the composite of cardiovascular death, nonfatal myocardial infarction, nonfatal stroke, coronary revascularization, or hospitalization for unstable angina. […] Exploratory analyses of the total of first and subsequent events were also performed for the key secondary composite endpoint.
Baseline characteristics were compared between treatment groups using the chi-squared test for categorical variables and the Wilcoxon rank sum test for continuous variables. There are several methods for analyzing first and subsequent (recurrent) event data. As a pre-specified statistical method, a negative binomial regression was used to calculate rates and rate ratios for total cardiovascular events, which accounts for the variability in each patient's risk of events. As pre-specified supportive analyses, the modified Wei-Lin-Weissfeld method (Li and Lagakos modification) was used to calculate hazard ratios (HRs) for the time to the first event, second event, or third event. An additional pre-specified analysis, the Andersen-Gill model using a Cox proportional-hazard with the counting-process formulation was performed to model the total events. In addition, in order to account for informative censoring due to cardiovascular death, the HR for total non-fatal events was calculated using a joint frailty model (See Rondeau V. Joint frailty models for recurring events and death using maximum penalized likelihood estimation: application on cancer events. Biostatistics. 2007; 8:708-21). The joint frailty model simultaneously estimates hazard functions for non-fatal and fatal CV events and takes into account the fact that patients who are prone to have nonfatal events have an elevated risk of a cardiovascular death. The application of the joint frailty model used a gamma distribution for the frailty term.
Statistical analyses using the full adjudicated endpoint events dataset without exclusions using this bundling approach were also determined.

[2] = REDUCE-IT safety: treatment-emergent adverse events, safety population
Protocol: All adverse events, including observed or volunteered problems, complaints, or symptoms, were recorded on the appropriate CRF. Each adverse event was evaluated for duration, intensity, and causal relationship with the study medication or other factors.
Adverse Events of Special Interest: Bleeding-related adverse events, glucose control (fasting blood glucose and HbA1c), and indicators of hepatic disorders (e.g., ALT or AST increases >3×ULN, total bilirubin increases of ≥2×ULN) were summarized separately and compared between treatment groups.
Analysis of Safety: All analyses of safety were conducted on the safety population, which was defined as all randomized patients. The safety assessment was based on the frequency of adverse events, physical exams, vital signs and safety laboratory tests. AEs with new onset during the study between the initiation of study drug and 30 days after the last dose of study drug for each patient was considered treatment-emergent (TEAEs). This included any AE with onset prior to initiation of study drug and increased severity after the treatment initiation.
This included overall incidence rates (regardless of severity and relationship to study drug), and incidence rates for moderate or severe adverse events. A summary of SAEs and adverse events leading to early discontinuation (for ≥30 days) were presented through data listings. Patients who restarted study drug were included in the summary of AEs leading to discontinuation. Safety laboratory tests and vital signs were summarized by post-treatment change from baseline for each of the parameters using descriptive statistics by treatment group. Those patients with significant laboratory abnormalities were identified in data listings. Additional safety parameters were summarized in data listings.

[3] = key secondary composite endpoint, Andersen-Gill (I), full dataset
[4] = key secondary composite endpoint, Andersen-Gill (I), reduced dataset
[5] = key secondary composite endpoint, Andersen-Gill (II), full dataset
[6] = key secondary composite endpoint, Andersen-Gill (II), reduced dataset
[7] = key secondary composite endpoint, full dataset
[8] = key secondary composite endpoint, reduced dataset
[9] = key secondary composite endpoint, negative binomial, full dataset
[10] = key secondary composite endpoint, negative binomial, reduced dataset
[11] = key secondary endpoint, adjusted, reduced dataset
[12] = key secondary endpoint, unadjusted, reduced dataset
[13] = primary composite endpoint, Andersen-Gill (I), full dataset
[14] = primary composite endpoint, Andersen-Gill (I), reduced dataset
[15] = primary composite endpoint, Andersen-Gill (II), full dataset
[16] = primary composite endpoint, Andersen-Gill (II), reduced dataset
[17] = primary composite endpoint, full dataset
[18] = primary composite endpoint, reduced dataset
[19] = primary composite endpoint, negative binomial, full dataset
[20] = primary composite endpoint, negative binomial, reduced dataset
[21] = primary endpoint, adjusted, reduced dataset
[22] = primary endpoint, unadjusted, reduced dataset
[23] = safety population N = 4089, listed as AMR101
[24] = serious bleeding TEAE, safety population N = 4089

CC/C=C\C/C=C\C/C=C\C/C=C\C/C=C\CCCC(=O)OCC [icosapent ethyl, eicosapentaenoic acid ethyl ester]
Total (first and subsequent) ischemic events for the primary composite endpoint: relative risk reduction ([1]; in vivo): 30%
Adjusted HR, total events [1, 3]: 0.71
Unadjusted HR, total events [1, 3]: 0.71
Adjusted HR, total events [1, 4]: 0.72
Unadjusted HR, total events [1, 4]: 0.72
Adjusted HR, total events [1, 5]: 0.71
Unadjusted HR, total events [1, 5]: 0.71
Adjusted HR, total events [1, 6]: 0.72
Unadjusted HR, total events [1, 6]: 0.72
Adjusted HR, first event [1, 7]: 0.74
Adjusted HR, second event [1, 7]: 0.75
Adjusted HR, third event [1, 7]: 0.79
Unadjusted HR, first event [1, 7]: 0.74
Unadjusted HR, second event [1, 7]: 0.75
Unadjusted HR, third event [1, 7]: 0.79
Adjusted HR, first event [1, 8]: 0.74
Adjusted HR, second event [1, 8]: 0.75
Adjusted HR, third event [1, 8]: 0.79
Unadjusted HR, first event [1, 8]: 0.74
Unadjusted HR, second event [1, 8]: 0.75
Unadjusted HR, third event [1, 8]: 0.79
Adjusted RR, total events [1, 9]: 0.71
Unadjusted RR, total events [1, 9]: 0.71
Adjusted RR, total events [1, 10]: 0.72
Unadjusted RR, total events [1, 10]: 0.71
HR, Cardiovascular Death [1, 11]: 0.79
HR, Non-fatal Cardiovascular Event [1, 11]: 0.68
Fatal events, % ([1]; key secondary endpoint): 45.0%
Total events before reduction, % ([1]; key secondary endpoint, share of overall events): 42.0%
HR, Cardiovascular Death [1, 12]: 0.79
HR, Non-fatal Cardiovascular Event [1, 12]: 0.68
Total key secondary endpoint events: RR vs placebo ([1]; negative binomial): 0.72
Adjusted HR, total events [1, 13]: 0.68
Unadjusted HR, total events [1, 13]: 0.68
Adjusted HR, total events [1, 14]: 0.69
Unadjusted HR, total events [1, 14]: 0.69
Adjusted HR, total events [1, 15]: 0.68
Unadjusted HR, total events [1, 15]: 0.68
Adjusted HR, total events [1, 16]: 0.69
Unadjusted HR, total events [1, 16]: 0.69
Adjusted HR, first event [1, 17]: 0.75
Adjusted HR, second event [1, 17]: 0.68
Adjusted HR, third event [1, 17]: 0.70
Unadjusted HR, first event [1, 17]: 0.76
Unadjusted HR, second event [1, 17]: 0.69
Unadjusted HR, third event [1, 17]: 0.70
Adjusted HR, first event [1, 18]: 0.75
Adjusted HR, second event [1, 18]: 0.68
Adjusted HR, third event [1, 18]: 0.69
Unadjusted HR, first event [1, 18]: 0.76
Unadjusted HR, second event [1, 18]: 0.69
Unadjusted HR, third event [1, 18]: 0.69
Adjusted RR, total events [1, 19]: 0.69
Unadjusted RR, total events [1, 19]: 0.67
Adjusted RR, total events [1, 20]: 0.70
Unadjusted RR, total events [1, 20]: 0.68
HR, Cardiovascular Death [1, 21]: 0.80
HR, Non-fatal Cardiovascular Event [1, 21]: 0.67
Fatal events, % ([1]; primary endpoint): 45.0%
Total events after reduction, % ([1]; primary endpoint, multiple endpoints in a single calendar day handled as a single event): 41.0%
HR, Cardiovascular Death [1, 22]: 0.80
HR, Non-fatal Cardiovascular Event [1, 22]: 0.66
Adverse event rate: anemia ([2]; 4 g/day): 4.7%
Adverse event rate: atrial fibrillation ([2]; 4 g/day): 5.3%
Adverse event rate: diarrhea ([2]; 4 g/day): 9%
Adverse event rate: gastrointestinal adverse events ([2]; 4 g/day): 33.0%
Adverse event rate: peripheral edema ([2]; 4 g/day): 6.5%
Atrial fibrillation or flutter requiring hospitalization (prespecified adjudicated tertiary endpoint) ([2]; 4 g/day): 3.1%
Tolerability; rates of serious adverse events versus placebo ([2]; in vivo): well tolerated
Serious TEAE ([2]; safety population N = 4089): (30.6%)
Serious TEAE (≥2%): Pneumonia ([2]; safety population N = 4089): 2.6%
Serious TEAE Leading to Death ([2]; safety population N = 4089): (2.3%)
Serious TEAE Leading to Withdrawal of Study Drug ([2]; safety population N = 4089): (2.2%)
Serious bleeding TEAE: Bleeding related disorders ([2]; safety population N = 4089): (2.7%)
Serious bleeding TEAE: Central nervous system bleeding ([2]; safety population N = 4089): (0.3%)
Serious bleeding TEAE: Gastrointestinal bleeding ([2]; safety population N = 4089): (1.5%)
Serious bleeding TEAE: Other bleeding ([2]; safety population N = 4089): (1.0%)
Subjects with at Least One TEAE ([2]; safety population N = 4089): (81.8%)
TEAE Leading to Withdrawal of Study Drug ([2]; safety population N = 4089): (7.9%)
Serious bleeding TEAE: Bleeding related disorders [2, 23]: 2.7%
Serious bleeding TEAE: Central nervous system bleeding [2, 23]: 0.3%
Serious bleeding TEAE: Gastrointestinal bleeding [2, 23]: 1.5%
Patients with Bleeding-Related Disorders, % [2, 24]: (2.7%)
Patients with Bleeding-Related Disorders, number [2, 24]: 111
